Entries after “also recorded” stand apart in the source; their conditions may differ. Where two headings read alike, the source gives them in different places.
Legend:
[1] = tested on: cellular immune response (DHR to ram erythrocytes); assay: delayed hypersensitivity reaction (DHR) in mice; assay type: in vivo
Experimental: To evaluate the effect of the preparation on cellular immunity reaction, delayed hypersensitivity reaction (DHR) was used. The mice were sensitized by subcutaneous injection of 1·10^7 ram erythrocytes contained in a volume of 20 μl. Doses of the preparation ranging from 0.2 to 2,000 μg were injected at ten-fold intervals simultaneously with sensitizing and shocking dose of the antigen. Shocking dose of ram erythrocytes (1·10^8) was injected under aponeurotic plate of left hind paw on the 5th day after sensitization. Injection of 20 μl of physiologic solution in the right paw served as control. Intensity of inflammatory reaction was recorded 24 hours after the administration of shocking dose of the antigen. For this purpose, the mice were killed and, immediately after this, both paws were amputated at the level of ankle joint and weighed on torsion balance. Reaction index (RI) was determined as the difference of masses of study (S) and control (C) paws using the following formula: [formula]

Strain 264 E. Coli = assay: non-specific resistivity of mice infected with E. Coli; assay type: in vivo, Strain C57BL6 mice; design: Mean lifetime: unit not given beside the values
Experimental: Doses of the preparation ranging from 200 to 0.2 μg were injected intraperitoneally at ten-fold intervals in 0.5 ml of physiologic solution to Strain C57BL6 mice two hours before their infecting. Mice were infected with S. Typhi in a dose of 1·10^4 microbial cells; another group of animals was infected with Strain 264 E. coli in a dose of […] microbial cells. Mice infected with the same microbial culture, but receiving no preparation, were used a controls. Lethal outcomes in mice were recorded every day for a period of 10 days.

[2] = tested on: natural killers (CD3−, CD16+ and CD56+); assay: cytotoxic activity of natural killers against K-562 cells; assay type: cell-based, human
Experimental: Labeled cells of […] of myeloblastoid Strain K-562, as well as mononuclear cells of 10 healthy blood donors and 10 patients with various diseases with low and high levels of cytotoxicity, were used for the study of effects of various concentrations of the preparation on cytotoxic activity of natural killers (CD3^−, CD16^+ and CD56^+).
The used Strain K-562 cells to effector cells ratio was 1:25 (100 μl of labeled cells and 100 μl of mononuclear cells). The studies were carried out using 96-well plates; incubation for 16 to 24 hours in a CO2-incubator at 37° C. was carried out. Then, the contents of the wells was transferred to filters, washed, dried and placed in solution with scintillation liquid with consecutive determination of index using a β-counter. Cytotoxic index (CI) was calculated using the following formula: [formula]
A=the target cells radioactivity in the presence of effector cells;
B=radioactivity after cells treatment with […] (maximum value);
C=radioactivity of target cells in the absence of effector cells.

## Nc1ccc2c(=O)[nH][nH]c(=O)c2c1.[Na] [sodium salt of 6-amino-2,3-dihydrophthalazine-1,4-dione]
[1]; 2 μg, Strain C57BL6 mice
  Reaction index: 19 ± 9
[1]; 2 μg, Strain CBA mice
  Reaction index: 11 ± 8
[1]; 20 μg, Strain C57BL6 mice
  Reaction index: 16 ± 9
[1]; 20 μg, Strain CBA mice
  Reaction index: 10 ± 5
[1]; 200 μg, Strain C57BL6 mice
  Reaction index: 15 ± 6
[1]; 200 μg, Strain CBA mice
  Reaction index: 2 ± 1.5
[1]; 200 μg, high-reaction Strain CBA mice
  development of DHR: inhibition of DHR; also recorded: suppressed
[1]; 20 to 2 μg, mice of both strains
  development of DHR: no effect
[1]; mice of both strains, as the dose of the preparation decreased
  reaction index (trend): tendency to increase

## Nc1cccc2c(=O)[nH][nH]c(=O)c12.[Ca] [calcium salt of 5-amino-2,3-dihydrophthalazine-1,4-dione]
Strain 264 E. Coli; dose 0.2 μg
  Mean lifetime: 2.2
Strain 264 E. Coli; dose 0.2 μg i.p., 10 mice
  Number of lethal outcomes, day 1: 4
  Number of lethal outcomes, day 3: 6
Strain 264 E. Coli; dose 0.2 μg, versus controls
  increase in lifetime of animals infected with E. Coli: 2.2 fold
Strain 264 E. Coli; dose 2 μg
  Mean lifetime: 1.0
Strain 264 E. Coli; dose 2 μg i.p., 10 mice
  Number of lethal outcomes, day 1: 10
Strain 264 E. Coli; dose 20 μg
  Mean lifetime: 1.0
Strain 264 E. Coli; dose 20 μg i.p., 10 mice
  Number of lethal outcomes, day 1: 10
Strain 264 E. Coli; dose 200 μg
  Mean lifetime: 1.0
Strain 264 E. Coli; dose 200 μg i.p. two hours before infecting, 10 mice
  Number of lethal outcomes, day 1: 10
Strain 264 E. Coli; doses 200 to 2 μg
  effects on the resistivity of mice infected with E. Coli: no effects

## CNc1cccc2c(=O)[nH][nH]c(=O)c12.[Na] [sodium salt of 5-methylamino-2,3-dihydrophthalazine-1,4-dione]
[2]; 2.5 μg/ml, High control level of CI
  Cytotoxic index level, % (M): 57 ± 0.7%
[2]; 2.5 μg/ml, Low control level of CI
  Cytotoxic index level, % (M): 34 ± 1.3%
[2]; 2.5 μg/ml, Medium control level of CI
  Cytotoxic index level, % (M): 41.9 ± 0.9%
[2]; 2.5 μg/ml, normal level of CI
  CI, %: 41.9 ± 2.8%
[2]; 5.0 μg/ml, High control level of CI
  Cytotoxic index level, % (M): 54 ± 0.8%
[2]; 5.0 μg/ml, Low control level of CI
  Cytotoxic index level, % (M): 30 ± 1.2%
[2]; 5.0 μg/ml, normal level of CI
  CI, %: 38.8 ± 3.1%
[2]; 10.0 μg/ml, normal level of CI
  CI, %: 40.8 ± 3.0%
[2]; 25.0 μg/ml, normal level of CI
  CI, %: 41.4 ± 3.0%
[2]; 50.0 μg/ml, normal level of CI
  CI, %: 39.1 ± 4.0%
[2]; 75.0 μg/ml, normal level of CI
  CI, %: 37.7 ± 4.1%
[2]; 150.0 μg/ml, normal level of CI
  CI, %: 41.0 ± 3.5%
[2]; 300.0 μg/ml, normal level of CI
  CI, %: 39.0 ± 3.1%
[2]; 2.5 and 5.0 μg/ml, high initial level of CI
  cytotoxicity of natural killers: statistically significant inhibition
[2]; 2.5 and 5.0 μg/ml, low initial level of CI
  functional activity of natural killers: statistically significant stimulation
[2]; 2.5 to 300 μg/ml, normal level of CI
  modification of natural killers cytotoxicity: did not cause significant modification

## Cl.Nc1cccc2c(=O)[nH][nH]c(=O)c12 [5-amino-2,3-dihydrophthalazine-1,4-dione hydrochloride]
Spleen cell culture; 2.5 μg/ml, ConA
  lymphoid cells proliferation: 195 ± 27
Spleen cell culture; 2.5 μg/ml, LPS
  lymphoid cells proliferation: 251 ± 44
Spleen cell culture; 2.5 μg/ml, no mitogen
  lymphoid cells proliferation: 249 ± 93
Spleen cell culture; 12.5 μg/ml, ConA
  lymphoid cells proliferation: 178 ± 28
Spleen cell culture; 12.5 μg/ml, LPS
  lymphoid cells proliferation: 256 ± 40
Spleen cell culture; 12.5 μg/ml, no mitogen
  lymphoid cells proliferation: 369 ± 56
Spleen cell culture; 50 μg/ml to 12.5 mg/ml
  mitogenic properties: no mitogenic properties
Spleen cell culture; 50 μg/ml, ConA
  lymphoid cells proliferation: 11860 ± 1566
Spleen cell culture; 50 μg/ml, LPS
  lymphoid cells proliferation: 13232 ± 928
Spleen cell culture; 50 μg/ml, no mitogen
  lymphoid cells proliferation: 2576 ± 237
Spleen cell culture; 500 μg/ml, ConA
  lymphoid cells proliferation: 1323 ± 192
Spleen cell culture; 500 μg/ml, LPS
  lymphoid cells proliferation: 3870 ± 308
Spleen cell culture; 500 μg/ml, no mitogen
  lymphoid cells proliferation: 1763 ± 94
Spleen cell culture; higher concentrations
  spontaneous proliferation of spleen cells and proliferation induced by ConA and LPS: inhibited
